# Patent publication US20230067811A1, “MODULATING LYMPHATIC VESSELS IN NEUROLOGICAL DISEASE” (University of Virginia Patent Foundation, priority 2020, published 2023)
# Tested on: microglia
# Test: Single-cell RNA-seq of brain cortical myeloid cells after meningeal lymphatic ablation
# Assay type: in vivo, mouse
# Conditions: 5×FAD mice, Vis. versus Vis./photo. groups
# Protocol: Transcriptome of sorted live CD45^+Ly6G^negCD11b^+ cells pooled from 3 mice per group was analyzed by single-cell RNA-seq (scRNA-seq).
# J Neurosci 28, 14156-14164, (2008)). Thus, it was hypothesized that altered microglial function in mice with impaired meningeal lymphatics was contributing to decreased clearance of Aβ by anti-Abeta antibody. Single-cell RNA-seq was performed on live myeloid CD45^+Ly6G^negCD11b^+ cells sorted from the brain cortices of 5×FAD mice with intact or ablated meningeal lymphatics (FIG. 13A). After in-silico removal of undesired cell contaminants, shared nearest neighbor clustering and t-distributed stochastic neighbor embedding, four clusters of microglia were identified (FIG. 13B). […] Cell 169, 1276-1290 e1217, (2017); Krasemann, S. et al. The TREM2-APOE Pathway Drives the Transcriptional Phenotype of Dysfunctional Microglia in Neurodegenerative Diseases. Immunity 47, 566-581 e569, (2017)). Concomitantly, it was observed that there was a significant increase in cortical CD45^high cells (recruited leukocytes and/or activated microglia, FIGS. 13M-13Q) and in the levels of […] (encoded by the H2-D1 gene) in both CD45^intCD11b^+ (microglia) and CD45high CD11b^neg (recruited lymphoid cells) cells in mice with meningeal lymphatic dysfunction (FIGS. 13R-13U). […]
substance,measurement,value
verteporfin [Visudyne],frequency of microglia (% of total cells) from each cluster,similar
